From paper PMC10143306, “Seven New Lobane Diterpenoids from the Soft Coral Lobophytum catalai” (Marine Drugs, 2023)
Like-named read-outs stand apart in the source and are kept apart here.

Tests used:
[1] = test system: K562 (human leukemia) cell line; test: Cytotoxicity assay, MTT method, K562; format: cell-based; details: Homo sapiens, read-out: Inhibition rate (%); for inhibition at 30 µM: K562, K562, 30 μM; for inhibition at 1 µM: K562, K562, 1 μM, positive control
Description: (§1) Moreover, the cytotoxic activity of these isolated compounds (1–7) was evaluated against the human leukemia K562, normal human hepatocyte L-02, human pancreatic cancer ASPC-1, and human breast cancer MDA-MB-231 cell lines.
(§2) The MTT method was used to evaluate cytotoxicity against the K562 (human leukemia) cell line, and the SRB method was used to evaluate cytotoxicity against the L-02 (normal human hepatocytes), ASPC-1 (human pancreatic cancer), and MDA-MB-231 (human breast cancer) cell lines. As a positive control, Adriamycin (doxorubicin) was used.

[2] = Cytotoxicity assay, MTT method, K562; format: cell-based, human; details: human, K562 leukemia cells; K562 cell line, MTT method; read-out: Cytotoxic activity (IC50)
Description: as §1, §2

[3] = Cytotoxicity assay, SRB method, L-02; format: cell-based, human; details: human, L-02 normal hepatocyte cells; L-02 cell line, SRB method; read-out: Cytotoxic activity (IC50)
Description: as §1, §2

[4] = test system: L-02 (normal human hepatocytes) cell line; test: Cytotoxicity assay, SRB method, L-02; format: cell-based; details: Homo sapiens, Hepatocyte, Table S16, read-out: Inhibition rate (%); for inhibition at 30 µM: L-02, 30 μM
Description: as §1, §2

[5] = Cytotoxicity assay, SRB method, ASPC-1; format: cell-based, human; details: human, ASPC-1 pancreatic cancer cells; ASPC-1 cell line, SRB method; read-out: Cytotoxic activity (IC50)
Description: as §1, §2

[6] = test system: ASPC-1 (human pancreatic cancer) cell line; test: Cytotoxicity assay, SRB method, ASPC-1; format: cell-based; details: Homo sapiens, ASPC1, Table S16, read-out: Inhibition rate (%); for inhibition at 30 µM: ASPC-1, 30 μM
Description: as §1, §2

[7] = test system: CuSO4-induced transgenic fluorescent zebrafish (Tg: zlyz-EGFP); test: Anti-inflammatory assay in CuSO4-induced transgenic fluorescent zebrafish (macrophage count around neuromasts); format: in vivo; details: for Number of macrophages around nerve mound (mean ± SEM): Table S15
Description: On account of the fact that research on the anti-inflammatory activity of lobane diterpenoids in zebrafish models has not been reported up to now, we attempted to identify lobane diterpenoids with anti-inflammatory activity in zebrafish models. The anti-inflammatory effect of compounds 1–7 was assessed in CuSO4-induced transgenic fluorescent zebrafish. CuSO4 can produce an intense acute inflammatory response in the neuromasts and mechanosensorial cells in the lateral line of zebrafish, stimulating the infiltration of macrophages. Thus, the number of macrophages surrounding the neuromasts in zebrafish can be observed and counted under a fluorescence microscope. Therefore, the anti-inflammatory activity of these lobane diterpenoids can be evaluated.
Figure 5 Anti-inflammatory assays of compounds 1–7. (a) Images of inflammatory sites in CuSO4-induced transgenic fluorescent zebrafish (Tg: zlyz-EGFP) expressing enhanced green fluorescent protein (EGFP) treated with compounds 1–7, using indomethacin as a positive control.
Healthy macrophage fluorescent transgenic zebrafish (Tg: zlyz-EGFP) were provided by the Biology Institute of Shandong Academy of Science (Jinan, China). The zebrafish maintenance and anti-inflammation assay were carried out as previously described. Each zebrafish larva was photographed using a fluorescence microscope (AXIO, Zom.V16), and the number of macrophages around the nerve mound was calculated using Image-Pro Plus 6.0 software (Rockville, MD, USA). One-way analysis of variance was conducted using GraphPad Prism 7.00 software (San Diego, CA, USA). Lobocatalens A–G (1–7) were tested for anti-inflammatory activities in the zebrafish models. Three dpf (days post-fertilization), healthy macrophage fluorescent transgenic zebrafish were used as animal models to evaluate the anti-inflammatory effects of compounds 1–7.

[8] = test system: MDA-MB-231 (human breast cancer) cell line; test: Cytotoxicity assay, SRB method, MDA-MB-231; format: cell-based; details: Homo sapiens, Table S16, read-out: Inhibition rate (%); for inhibition at 30 µM: MDA-MB-231, 30 μM
Description: as §1, §2

[9] = Cytotoxicity assay, SRB method, MDA-MB-231; format: cell-based, human; details: human, MDA-MB-231 breast cancer cells; MDA-MB-231 cell line, SRB method; read-out: Cytotoxic activity (IC50)
Description: as §1, §2

[10] = Danio rerio, Macrophage, 20 μM, Table S15, read-out: Inhibition rate

Row | Compound | inhibition at 30 µM ([1]; Table S16) | IC50 [2] | IC50 [3] | inhibition at 30 µM [4] | IC50 [5] | inhibition at 30 µM [6] | Number of macrophages around nerve mound (mean ± SEM) ([7]; 20 μM) | inhibition at 20 µM [7, 10] | inhibition at 30 µM [8] | IC50 [9] | other results
1 | C=CC1(C)CCC(C(C)=CC(=O)CC(C)(C)O)CC1C(=C)C (stereo not drawn) [Compound 4, Lobocatalen D] | 36.7% | > 30 µM | > 30 µM | 21.6% | > 30 µM | 18.9% | 22.22 ± 2.737 | 30.3% | 18.4% | > 30 µM | 
2 | C=CC1(C)CCC(C(=O)C=CC(OC(C)=O)C(C)(C)O)CC1C(=C)C (stereo not drawn) [Compound 7, Lobocatalen G] | 63.5% | 28 µM | > 30 µM | 29.8% | > 30 µM | 17.5% | 18.6 ± 1.805 | 41.7% | 10.4% | > 30 µM | inhibition at 0.9375 µM ([1]; K562, K562, 0.9375 μM, Table S17): 5.87%; inhibition at 1.875 µM ([1]; K562, K562, 1.875 μM, Table S17): 9.55%; inhibition at 3.75 µM ([1]; K562, K562, 3.75 μM, Table S17): 11.6%; inhibition at 7.5 µM ([1]; K562, K562, 7.5 μM, Table S17): 15.5%; inhibition at 15 µM ([1]; K562, K562, 15 μM, Table S17): 21%; inhibition at 30 µM ([1]; Table S17): 73.3%; Anti-inflammatory activity (in words) ([7]; 20 μM, migration and number of macrophages surrounding the neuromasts): moderate anti-inflammatory activity
3 | C=CC1(C)CCC(C2=CCC(C(C)(C)O)OC2O)CC1C(=C)C (stereo not drawn) [Compound 2, Lobocatalen B] | 48.7% | > 30 µM | > 30 µM | 30.2% |  |  | 30.00 ± 3.047 | 5.93% | 24.2% | > 30 µM | 
4 | C=CC1(C)CCC(C2=COC(C(C)(C)O)CC2=O)CC1C(=C)C (stereo not drawn) [Compound 3, Lobocatalen C] | 43.5% | > 30 µM | > 30 µM | 22.1% | > 30 µM | 18.6% | 25.30 ± 1.904 | 20.7% | 19.9% | > 30 µM | 
5 | COc1cccc2c1C(=O)c1c(O)c3c(c(O)c1C2=O)C[C@@](O)(C(=O)CO)C[C@@H]3O[C@H]1C[C@H](N)[C@H](O)[C@H](C)O1 [doxorubicin, reference compound] |  | < 1 µM | < 1 µM |  | < 1 µM |  |  |  |  | < 1 µM | inhibition at 1 µM ([1]; Table S16): 100%; inhibition at 1 µM ([1]; Table S17): 100%; inhibition at 1 µM ([4]; L-02, 1 μM, positive control): 83%; inhibition at 1 µM ([6]; ASPC-1, 1 μM, positive control): 52%; inhibition at 1 µM ([8]; MDA-MB-231, 1 μM, positive control): 55.9%
6 | C=CC1(C)CCC(C2=CCC3OC2OC3(C)C)CC1C(=C)C (stereo not drawn) [Compound 1, Lobocatalen A] | 39.9% | > 30 µM | > 30 µM | 24.9% |  |  | 25.67 ± 3.14 | 19.5% | 21.9% | > 30 µM | 
7 | C=CC1(C)CCC(C(C)=CC=CC(C)=O)CC1C(=C)C (stereo not drawn) [Compound 6, Lobocatalen F] |  |  | > 30 µM | 25.4% |  |  | 26.2 ± 2.356 | 17.8% |  |  | 
8 | COc1ccc2c(c1)c(CC(=O)O)c(C)n2C(=O)c1ccc(Cl)cc1 [Indomethacin, reference compound] |  |  |  |  |  |  |  |  |  |  | Number of macrophages around nerve mound (mean ± SEM) ([7]; 40 μM, positive control): 11.88 ± 1.575; inhibition at 40 µM ([7]; Danio rerio, Macrophage, 40 μM, positive control, Table S15, read-out: Inhibition rate): 62.8%
9 | C=CC1(C)CCC(C(=C)CCC(=O)C(C)(C)O)CC1C(=C)C (stereo not drawn) [Compound 5, Lobocatalen E] | 34.3% | > 30 µM |  |  |  |  | 21.89 ± 3.199 | 31.4% |  |  | 
